# Assay results as given in PubChem BioAssay AID1259407 (Chemical Carcinogenesis Research Information System (CCRIS), 2018).
# The source made the active and inactive calls. The rule behind the calls is not given here.
# System: CCRIS mutagenicity, Ames/micronucleus/aberration tests
# Test: CCRIS mutagenicity studies
# [1] = Test System: AMES SALMONELLA TYPHIMURIUM, Strain/Indicator: TA98, Metabolic Activation: HAMSTER, LIVER, S-9, AROCLOR 1254 (10%), Method: PREINCUBATION
# [2] = Test System: AMES SALMONELLA TYPHIMURIUM, Strain/Indicator: TA98, Metabolic Activation: NONE, Method: PREINCUBATION
# [3] = Test System: AMES SALMONELLA TYPHIMURIUM, Strain/Indicator: TA98, Metabolic Activation: RAT, LIVER, S-9, AROCLOR 1254 (10%), Method: PREINCUBATION
# [4] = Test System: AMES SALMONELLA TYPHIMURIUM, Strain/Indicator: TA100, Metabolic Activation: HAMSTER, LIVER, S-9, AROCLOR 1254 (10%), Method: PREINCUBATION
# [5] = Test System: AMES SALMONELLA TYPHIMURIUM, Strain/Indicator: TA100, Metabolic Activation: NONE, Method: PREINCUBATION
# [6] = Test System: AMES SALMONELLA TYPHIMURIUM, Strain/Indicator: TA100, Metabolic Activation: RAT, LIVER, S-9, AROCLOR 1254 (10%), Method: PREINCUBATION
# [7] = Test System: AMES SALMONELLA TYPHIMURIUM, Strain/Indicator: TA1535, Metabolic Activation: HAMSTER, LIVER, S-9, AROCLOR 1254 (10%), Method: PREINCUBATION
# [8] = Test System: AMES SALMONELLA TYPHIMURIUM, Strain/Indicator: TA1535, Metabolic Activation: NONE, Method: PREINCUBATION
# [9] = Test System: AMES SALMONELLA TYPHIMURIUM, Strain/Indicator: TA1535, Metabolic Activation: RAT, LIVER, S-9, AROCLOR 1254 (10%), Method: PREINCUBATION
# [10] = Test System: AMES SALMONELLA TYPHIMURIUM, Strain/Indicator: TA1537, Metabolic Activation: HAMSTER, LIVER, S-9, AROCLOR 1254 (10%), Method: PREINCUBATION
# [11] = Test System: AMES SALMONELLA TYPHIMURIUM, Strain/Indicator: TA1537, Metabolic Activation: NONE, Method: PREINCUBATION
# [12] = Test System: AMES SALMONELLA TYPHIMURIUM, Strain/Indicator: TA1537, Metabolic Activation: RAT, LIVER, S-9, AROCLOR 1254 (10%), Method: PREINCUBATION
# [13] = Test System: AMES SALMONELLA TYPHIMURIUM, Strain/Indicator: TA98, Metabolic Activation: NONE, Method: STANDARD PLATE
# [14] = Test System: AMES SALMONELLA TYPHIMURIUM, Strain/Indicator: TA100, Metabolic Activation: NONE, Method: STANDARD PLATE
# [15] = Test System: AMES SALMONELLA TYPHIMURIUM, Strain/Indicator: TA98, Metabolic Activation: RAT, LIVER, S-9, AROCLOR 1254, Method: PREINCUBATION
# [16] = Test System: AMES SALMONELLA TYPHIMURIUM, Strain/Indicator: TA100, Metabolic Activation: RAT, LIVER, S-9, AROCLOR 1254, Method: PREINCUBATION
# [17] = Test System: AMES SALMONELLA TYPHIMURIUM, Strain/Indicator: TA97, Metabolic Activation: NONE, Method: STANDARD PLATE
compound,measurement,setting,value
C=C(C)C1CC=C(C)C(O)C1 (stereo not drawn),mutagenic call,[1],inactive; negative
same,mutagenic call,[2],inactive; negative
same,mutagenic call,[3],inactive; negative
same,mutagenic call,[4],inactive; negative
same,mutagenic call,[5],inactive; negative
same,mutagenic call,[6],inactive; negative
same,mutagenic call,[7],inactive; negative
same,mutagenic call,[8],inactive; negative
same,mutagenic call,[9],inactive; negative
same,mutagenic call,[10],inactive; negative
same,mutagenic call,[11],inactive; negative
same,mutagenic call,[12],inactive; negative
c1ccc([C@H]2N[C@H]2c2ccccc2)cc1,mutagenic call,[13],inactive; negative
same,mutagenic call,[14],active; positive
same,mutagenic call,"Test System: AMES SALMONELLA TYPHIMURIUM, Strain/Indicator: TA1537, Metabolic Activation: NONE, Method: STANDARD PLATE",inactive; negative
CC(C)=CCC/C(C)=C/C=C/C(C)=C/C=C/C(C)=C/C=C/C=C(C)/C=C/C=C(C)/C=C/C=C(\C)CCC=C(C)C,mutagenic call,[2],inactive; negative
same,mutagenic call,"Test System: AMES SALMONELLA TYPHIMURIUM, Strain/Indicator: TA98, Metabolic Activation: RAT LIVER S-9, Method: PREINCUBATION",inactive; negative
same,mutagenic call,[5],inactive; negative
same,mutagenic call,"Test System: AMES SALMONELLA TYPHIMURIUM, Strain/Indicator: TA100, Metabolic Activation: RAT LIVER S-9, Method: PREINCUBATION",inactive; negative
same,mutagenic call,[8],inactive; negative
same,mutagenic call,"Test System: AMES SALMONELLA TYPHIMURIUM, Strain/Indicator: TA1535, Metabolic Activation: RAT LIVER S-9, Method: PREINCUBATION",inactive; negative
same,mutagenic call,[11],inactive; negative
same,mutagenic call,"Test System: AMES SALMONELLA TYPHIMURIUM, Strain/Indicator: TA1537, Metabolic Activation: RAT LIVER S-9, Method: PREINCUBATION",inactive; negative
same,mutagenic call,"Test System: ESCHERICHIA COLI, Strain/Indicator: WP2 UVR A, Metabolic Activation: NONE, Method: PREINCUBATION",inactive; negative
same,mutagenic call,"Test System: ESCHERICHIA COLI, Strain/Indicator: WP2 UVR A, Metabolic Activation: RAT LIVER S-9, Method: PREINCUBATION",inactive; negative
O=C1CCc2ccccc2O1,mutagenic call,[1],inactive; negative
same,mutagenic call,"Test System: AMES SALMONELLA TYPHIMURIUM, Strain/Indicator: TA98, Metabolic Activation: HAMSTER, LIVER, S-9, AROCLOR 1254, Method: PREINCUBATION",inactive; negative
same,mutagenic call,[2],inactive; negative
same,mutagenic call,[3],inactive; negative
same,mutagenic call,[15],inactive; negative
same,mutagenic call,[4],inactive; negative
same,mutagenic call,"Test System: AMES SALMONELLA TYPHIMURIUM, Strain/Indicator: TA100, Metabolic Activation: HAMSTER, LIVER, S-9, AROCLOR 1254, Method: PREINCUBATION",inactive; negative
same,mutagenic call,[5],inactive; negative
same,mutagenic call,[6],inactive; negative
same,mutagenic call,[16],inactive; negative
same,mutagenic call,[7],inactive; negative
same,mutagenic call,"Test System: AMES SALMONELLA TYPHIMURIUM, Strain/Indicator: TA1535, Metabolic Activation: HAMSTER, LIVER, S-9, AROCLOR 1254, Method: PREINCUBATION",inactive; negative
same,mutagenic call,[8],inactive; negative
same,mutagenic call,[9],inactive; negative
same,mutagenic call,"Test System: AMES SALMONELLA TYPHIMURIUM, Strain/Indicator: TA1535, Metabolic Activation: RAT, LIVER, S-9, AROCLOR 1254, Method: PREINCUBATION",inactive; negative
same,mutagenic call,[10],inactive; negative
same,mutagenic call,"Test System: AMES SALMONELLA TYPHIMURIUM, Strain/Indicator: TA1537, Metabolic Activation: HAMSTER, LIVER, S-9, AROCLOR 1254, Method: PREINCUBATION",inactive; negative
same,mutagenic call,[11],inactive; negative
same,mutagenic call,[12],inactive; negative
same,mutagenic call,"Test System: AMES SALMONELLA TYPHIMURIUM, Strain/Indicator: TA1537, Metabolic Activation: RAT, LIVER, S-9, AROCLOR 1254, Method: PREINCUBATION",inactive; negative
COP(=O)(SC)SC,mutagenic call,[17],inactive; negative
same,mutagenic call,"Test System: AMES SALMONELLA TYPHIMURIUM, Strain/Indicator: TA97, Metabolic Activation: RAT, LIVER, S-9, AROCLOR 1254, Method: PREINCUBATION",inactive; negative
same,mutagenic call,"Test System: AMES SALMONELLA TYPHIMURIUM, Strain/Indicator: TA97, Metabolic Activation: RAT, LIVER, S-9, AROCLOR 1254, Method: STANDARD PLATE",inactive; negative
same,mutagenic call,[13],inactive; negative
same,mutagenic call,[15],inactive; negative
same,mutagenic call,"Test System: AMES SALMONELLA TYPHIMURIUM, Strain/Indicator: TA98, Metabolic Activation: RAT, LIVER, S-9, AROCLOR 1254, Method: STANDARD PLATE",inactive; negative
same,mutagenic call,[14],inactive; negative
same,mutagenic call,[16],inactive; negative
same,mutagenic call,"Test System: AMES SALMONELLA TYPHIMURIUM, Strain/Indicator: TA100, Metabolic Activation: RAT, LIVER, S-9, AROCLOR 1254, Method: STANDARD PLATE",inactive; negative
Cc1cc2c(c3ccc4ccccc4c13)[C@@H]1O[C@@H]1[C@H](O)[C@H]2O,mutagenic call,[5],active; positive
C/C=C1/C[C@@H](C)[C@@](C)(O)C(=O)OC/C2=C/CN(C)CC[C@@H](OC1=O)C2=O,mutagenic call,"Test System: AMES SALMONELLA TYPHIMURIUM, Strain/Indicator: TA100, Metabolic Activation: HAMSTER, LIVER, S-9, PCB, Method: PREINCUBATION",active; positive
same,mutagenic call,"Test System: AMES SALMONELLA TYPHIMURIUM, Strain/Indicator: TA100, Metabolic Activation: RAT, LIVER, S-9, PCB, Method: PREINCUBATION",active; positive
same,mutagenic call,"Test System: UDS HAMSTER HEPATOCYTES, Strain/Indicator: THY INCORP, Metabolic Activation: NONE, Method: AUTORADIOGRAPHY",active; positive
same,mutagenic call,"Test System: UDS MOUSE HEPATOCYTES, Strain/Indicator: THY INCORP, Metabolic Activation: NONE, Method: AUTORADIOGRAPHY",active; positive
same,mutagenic call,"Test System: UDS RAT HEPATOCYTES, Strain/Indicator: THY INCORP, Metabolic Activation: NONE, Method: AUTORADIOGRAPHY",active; positive
N/C(=N\O)c1ccc(O)c(O)c1,mutagenic call,[17],inactive; negative
same,mutagenic call,"Test System: AMES SALMONELLA TYPHIMURIUM, Strain/Indicator: TA97, Metabolic Activation: RAT, LIVER, S-9, DELOR 103, Method: STANDARD PLATE",inactive; negative
same,mutagenic call,[13],inactive; negative
same,mutagenic call,"Test System: AMES SALMONELLA TYPHIMURIUM, Strain/Indicator: TA98, Metabolic Activation: RAT, LIVER, S-9, DELOR 103, Method: STANDARD PLATE",active; positive
same,mutagenic call,[14],inactive; negative
same,mutagenic call,"Test System: AMES SALMONELLA TYPHIMURIUM, Strain/Indicator: TA100, Metabolic Activation: RAT, LIVER, S-9, DELOR 103, Method: STANDARD PLATE",inactive; negative
same,mutagenic call,"Test System: AMES SALMONELLA TYPHIMURIUM, Strain/Indicator: TA102, Metabolic Activation: NONE, Method: STANDARD PLATE",inactive; negative
same,mutagenic call,"Test System: AMES SALMONELLA TYPHIMURIUM, Strain/Indicator: TA102, Metabolic Activation: RAT, LIVER, S-9, DELOR 103, Method: STANDARD PLATE",inactive; negative
